# Test results reported in patent US5948750A, “Conjugates useful in the treatment of prostate cancer” (priority 1997, dated 1999).
# Like-named read-outs stand apart in the source and are kept apart here. Square brackets hold non-standard residues; d marks the D form. Peptide text beside a SMILES is read from it. * marks the point of attachment. Doxorubicin(3'-N) = COc1cccc2c1C(=O)c1c(O)c3c(c(O)c1C2=O)C[C@@](O)(C(=O)CO)C[C@@H]3O[C@H]1C[C@H](N*)[C@H](O)[C@H](C)O1; Decanoyl(3,6,9-trioxa) = COCCOCCOCC(=O)*; Hyp = O=C(O)[C@@H]1C[C@@H](O)CN1; Chg = N[C@H](C(=O)O)C1CCCCC1; ΔPro = O=C(O)[C@@H]1C=CCN1
# Assays:
# free PSA [1] = target: T1, free PSA (Homo sapiens, UniProt P07288); format: biochemical; settings: for Substrate cleavage by PSA at 3 hours: oligopeptide to PSA molar ratio 100 to 1; for Time to 50% Substrate Cleavage by PSA: free psa
# T1 construct: required for 50% cleavage of the noted oligopeptides with enzymatically active free PSA
# T1 sequence (P07288 25-261): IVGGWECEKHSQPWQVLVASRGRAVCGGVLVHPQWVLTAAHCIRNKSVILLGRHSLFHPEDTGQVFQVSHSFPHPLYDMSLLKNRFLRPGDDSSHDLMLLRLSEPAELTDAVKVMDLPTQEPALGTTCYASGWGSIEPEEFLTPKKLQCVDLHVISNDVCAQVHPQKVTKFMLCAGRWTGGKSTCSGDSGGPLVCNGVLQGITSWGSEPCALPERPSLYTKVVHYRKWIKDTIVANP
# Protocol: The oligopeptides prepared as described in Example 1 were individually dissolved in PSA digestion buffer (12 mM tris(hydroxymethyl)-aminomethane pH 8.0, 25 mM NaCl, 0.5 mM CaCl2) and the solution added to PSA at a molar ration of 100 to 1. Alternatively, the PSA digestion buffer utilized is 50 mM tris(hydroxymethyl)-aminomethane pH 7.4, 140 mM NaCl. The reaction is quenched after various reaction times by the addition of trifluoroacetic acid (TFA) to a final 1% (volume/volume). Alternatively the reaction is quenched with 10 mM ZnCl2. The quenched reaction was analyzed by HPLC on a reversed-phase C18 column using an aqueous 0.1% TFA/acetonitrile gradient. […] Oligopeptides containing free amine moieties (ie. comprising hArg, Orn, Lys and or 3PAL) were tested as TFA salts. All other oligopeptides were tested as neutral compounds.
# free PSA [2] = target: T1, free PSA; experiment: Recognition of oligopeptide-doxorubicin conjugates by free PSA (HPLC cleavage assay); format: biochemical; settings: conjugate to PSA molar ratio 100 to 1; enzymatically active free PSA
# Protocol: The conjugates prepared as described in Examples 3-5 were individually dissolved in PSA digestion buffer (12 mM tris(hydroxymethyl)-aminomethane pH 8.0, 25 mM NaCl, 0.5 mM CaCl2) and the solution added to PSA at a molar ration of 100 to 1. Alternatively, the PSA digestion buffer utilized is 50 mM tris(hydroxymethyl)-aminomethane pH 7.4, 140 mM NaCl. The reaction is quenched after various reaction times by the addition of trifluoroacetic acid (TFA) to a final 1% (volume/volume). Alternatively the reaction is quenched with 10 mM ZnCl2. The quenched reaction was analyzed by HPLC on a reversed-phase C18 column using an aqueous 0.1% TFA/acetonitrile gradient. […] If no salt is indicated for the conjugate, the free conjugate was tested. The oligopeptide-cytotoxic agent conjugates described in Examples 4 and 5 were assessed for the amount of time (in minutes) required for 50% cleavage of the oligopeptide with enzymatically active free PSA and 50% cleavage occurred in less than 2 hours for those conjugates.
# [3] = test system: LNCap prostate tumor cells (which express enzymatically active PSA); experiment: In vitro cytotoxicity of peptidyl derivatives of doxorubicin, Alamar Blue assay, LNCaP; format: cell-based; settings: 72 HRS (3 days at 37° C.), read-out: LNCaP Cell Kill in 72 HRS EC 50
# Protocol: (§1) The cytotoxicities of the cleaveable oligopeptide-doxorubicin conjugates, prepared as described in Examples 3 and 4, against a line of cells which is known to be killed by unmodified doxorubicin were assessed with an Alamar Blue assay. Specifically, cell cultures of LNCap prostate tumor cells (which express enzymatically active PSA) or DuPRO cells in 96 well plates was diluted with medium (Dulbecco's […]-α[MEM-α]) containing various concentrations of a given conjugate (final plate well volume of 200 μl). The cells were incubated for 3 days at 37° C., 20 μl of Alamar Blue is added to the assay well. The cells were further incubated and the assay plates were read on a EL-310 ELISA reader at the dual wavelengths of 570 and 600 nm at 4 and 7 hours after addition of Alamar Blue. Relative percentage viability at the various concentration of conjugate tested was then calculated versus control (no conjugate) cultures. If no salt is indicated, the free conjugate was tested.
# DuPRO cells = experiment: In vitro cytotoxicity of peptidyl derivatives of doxorubicin, Alamar Blue assay, DuPRO; format: cell-based; settings: 72 HRS, read-out: DUPRO Cell Kill in 72 HRS EC 50
# Protocol: as §1
Compound,Substrate cleavage by PSA at 3 hours (free PSA [1]) [%],Time to 50% Substrate Cleavage by PSA (free PSA [2]) [min],Time to 50% Substrate Cleavage by PSA (free PSA [1]) [min],further results
CC(=O)N1C[C@H](O)C[C@H]1C(=O)N[C@@H](C)C(=O)N[C@@H](CO)C(=O)N[C@H](C(=O)N[C@@H](CCC(N)=O)C(=O)N[C@@H](CO)C(=O)N1Cc2ccccc2C[C@H]1C(=O)O)C1CCCCC1 [Ac-(4-trans-L-Hyp)ASChgQ-S(TIC)-acid],16,–,–,–
"COCCOCCOCC(=O)N1C[C@H](O)C[C@H]1C(=O)N[C@@H](C)C(=O)N[C@@H](CO)C(=O)N[C@H](C(=O)N[C@@H](CCC(N)=O)C(=O)N[C@@H](CO)C(=O)N[C@@H](CC(C)C)C(=O)N[C@H]1C[C@H](O[C@H]2C[C@](O)(C(=O)CO)Cc3c(O)c4c(c(O)c32)C(=O)c2c(OC)cccc2C4=O)O[C@@H](C)[C@H]1O)C1CCCCC1 [PEG(2)-(4-trans-L-Hyp)ASChgQ-SL-DOX (3')] ({Decanoyl(3,6,9-trioxa)}-[Hyp]AS[Chg]QSL-{Doxorubicin(3'-N)})",–,20,–,–
CC(=O)N1CC=C[C@H]1C(=O)N[C@@H](C)C(=O)N[C@@H](CO)C(=O)N[C@H](C(=O)N[C@@H](CCC(N)=O)C(=O)N[C@@H](CO)C(=O)N[C@@H](CC(C)C)C(=O)O)C1CCCCC1 [Ac-(Dehydro-Pro)-ASChgQ-SL-acid] (Ac-[ΔPro]AS[Chg]QSL-OH),28,–,–,–
CC(=O)N1CCC[C@H]1C(=O)N[C@@H](C)C(=O)N[C@@H](CO)C(=O)N[C@H](C(=O)N[C@@H](CCC(N)=O)C(=O)N[C@@H](CO)C(=O)N[C@@H](CC(C)C)C(=O)O)C1CCCCC1 [Ac-PASChgQ-SL-acid] (Ac-PAS[Chg]QSL-OH),–,–,150,–
"COc1cccc2c1C(=O)c1c(O)c3c(c(O)c1C2=O)C[C@@](O)(C(=O)CO)C[C@@H]3O[C@H]1C[C@H](NC(=O)[C@H](CC(C)C)NC(=O)[C@H](CO)NC(=O)[C@H](CCC(N)=O)NC(=O)[C@@H](NC(=O)[C@H](CO)NC(=O)[C@H](C)NC(=O)[C@@H]2C[C@@H](O)CN2C(C)=O)C2CCCCC2)[C@H](O)[C@H](C)O1 (relative stereo) [Ac-(4-trans-L-Hyp)ASChgQ-SL-DOX (3'), [N-Ac-(4-trans-L-Hyp)]-Ala-Ser-Chg-Gln-Ser-Leu-Dox]",–,20,–,EC50 [3]: 4.5 µM; EC50 (DuPRO cells): 90 µM
"COCCOCCOCC(=O)N1C[C@H](O)C[C@H]1C(=O)N[C@@H](C)C(=O)N[C@@H](CO)C(=O)N[C@H](C(=O)N[C@@H](CCC(N)=O)C(=O)N[C@@H](CO)C(=O)N[C@@H](CC(C)C)C(=O)O)C1CCCCC1 [PEG(2)-(4-trans-L-Hyp)-ASChgQ-SL-acid] ({Decanoyl(3,6,9-trioxa)}-[Hyp]AS[Chg]QSL-OH)",44,–,–,–
COc1cccc2c1C(=O)c1c(O)c3c(c(O)c1C2=O)C[C@@](O)(C(=O)CO)C[C@@H]3O[C@H]1C[C@H](NC(=O)[C@H](CC(C)(C)C)NC(=O)[C@H](CO)NC(=O)[C@H](CCC(N)=O)NC(=O)[C@@H](NC(=O)[C@H](CO)NC(=O)[C@H](C)NC(=O)[C@@H]2C[C@@H](O)CN2C(C)=O)C2CCCCC2)[C@H](O)[C@H](C)O1,–,25,–,–
CC(=O)N1CCC[C@H]1C(=O)N[C@@H](CO)C(=O)N[C@@H](CO)C(=O)N[C@H](C(=O)N[C@@H](CCC(N)=O)C(=O)N[C@@H](CO)C(=O)N[C@H](C(=O)O)C(C)C)C1CCCCC1 [Ac-PSSChgQ-SV-acid],–,–,120,–
"CC(=O)N1C[C@H](O)C[C@H]1C(=O)N[C@@H](C)C(=O)N[C@@H](CO)C(=O)N[C@H](C(=O)N[C@@H](CCC(N)=O)C(=O)N[C@@H](CO)C(=O)N[C@@H](CC(C)C)C(=O)O)C1CCCCC1 [Ac-(4-trans-L-Hyp)ASChgQ-SL-acid, [N-Ac-(4-trans-L-Hyp)]-Ala-Ser-Chg-Gln-Ser-Leu-OH] (Ac-[Hyp]AS[Chg]QSL-OH)",–,–,75,–
CC(=O)N1C[C@H](O)C[C@H]1C(=O)N[C@H](C(=O)N[C@@H](CCC(N)=O)C(=O)N[C@@H](CO)C(=O)N[C@@H](CO)C(=O)N[C@@H](CO)C(=O)N[C@@H](CC(C)C)C(=O)O)C1CCCCC1 [Ac-(4-trans-L-Hyp)ChgQ-SSSL-acid] (Ac-[Hyp][Chg]QSSSL-OH),0,–,–,–
